As a reminder, the inhibition in vivo is the relative decrease from the control value, in per cent. Higher therefore signals a strong effect.

This passage reports inhibition in vivo results from US4652646A, “Thiazolo[3,2-a][1,2,3]triazolo[4,5-d]pyrimidine and [1,3,4]thiadiazolo[3,2-a][1,2,3]triazolo[4,5-d]pyrimidine derivatives” (Daiichi Seiyaku Co., Ltd., priority 1984, dated 1987).

The subject of test [1] is passive cutaneous anaphylaxis (PCA) reaction. As to the kind of experiment: Passive cutaneous anaphylaxis (PCA) test. It is filed as in vivo, Sprague-Dowley male rats. Particulars: 0.5 h; rat PCA; 20 mg/kg in 0.5% CMC, oral, 30 minutes before antigen challenge. The method, then:
(§1) 1 mg of egg albumin dissolved in 0.2 ml of saline was intramuscularly administered to each of Sprague-Dawley male rats weighing 300 to 350 g (Charles River Japan Inc.), and then 1 ml of a suspension of sterilized Bordetella pertussis (2×10^10 cells) in saline was administered intraperitoneally to the rats. After 14 days, blood was drawn from the rats to obtain an antiserum.
In this test, the antiserum described in Test Example 1 was used after it was diluted with saline so as to provide a blue spot having a diameter of about 10 mm in the following control group.
Sprague-Dowley male rats weighing about 180 g (5 rats per group) were sensitized by injecting 0.05 ml of the diluted antiserum into the shaved dorsal skin. 48 hours later, the animals were challenged with 1 ml of saline containing 5 mg of egg albumin and 5 mg of Evans blue dye administered via a tail vein. 30 minutes later, the rats were sacrificed by decapitation. The dorsal skin was removed, and the long and short axis of the each wheal was measured.
In this test, the test compound was administered as follows. 20 mg of a test compound was suspended in a 0.5% CMC aqueous solution, and the suspension was administered to each of the rats in an amount of 20 mg/kg 30 minutes before the antigen challenge. For a control group, only a 0.5% CMC solution was administered.
The inhibitory activity on the PCA reaction in the treated group was calculated by the following formula: [formula] wherein: a represents a mean value of blue spot area in the control group.
b represents a mean value of blue spot area in the treated group.

In test [2] the test system is release of SRS-A induced by passive peritoneal anaphylaxis (PPA) reaction. As to the kind of experiment: Passive Peritoneal Anaphylaxis (PPA) test: inhibition of SRS-A release. Particulars: ip, 5 min; rat PPA; 1 mg/kg intraperitoneally 30 seconds before egg albumin. It is filed as in vivo, Sprague-Dawley male rats. The method, then:
as §1
(§2) The test was conducted according to the method of Orange et al [Orange, R. P., Stechschulte, D. J., Austen, K. F., J. Immunol., 105, pp1087-1095 (1970)]. Sprague-Dawley male rats weighing 250 to 400 g (5 rats per group) were passively sensitized by administering 5 ml of 5-fold dilution antiserum (prepared by diluting the above antiserum with saline). 2 hours later, 5 ml of an egg albumin solution prepared by dissolving 2 mg of egg albumin in phosphate buffered saline containing 0.9 mM of calcium chloride was administered intraperitoneally to the rats. After 5 minutes, the rats were sacrificed by decapitation, and peritoneal fluid was pooled and centrifuged at 300×G at 4° C. for 10 minutes. Then, amounts of SRS-A and histamine in the supernatant were determined.
The quantitative determination of SRS-A was carried out according to the method of Stechschulte et al [Stechschulte, D. J., Auste, K. F., Bloch, K. J., J. Exp. Med., 125, pp127-147 (1967)] using a guinea pig ileum specimen in the presence of mepyramine and atropine. The amount of SRS-A was expressed in terms of unit, i.e., one unit of SRS-A activity was defined as the concentration required to produce a contraction of guinea pig ileum equal in amplitude to that produced by 5 ng of histamine, and the total released amount of SRS-A per rat (unit/rat) was calculated.
(§3) In this test, the test compound of this invention was administered as follows. 2 mg of a test compound was dissolved in 10 ml of phosphate buffered saline containing 0.9 mM of calcium chloride, an equimolar amount of sodium hydroxide to test compound, 2% of dimethyl sulfoxide and 2% of ethanol, and the solution was administered intraperitoneally to the rats at a dose of 1 mg/kg 30 seconds before the injection of egg albumin for inducing PPA. For a control group, the same solution without test compound and sodium hydroxide was administered.
(§4) The inhibitory activity on release of histamine and SRS-A by the PPA reaction in the treated group was calculated by the following formula: [formula] wherein: a represents a mean value of released amount in the control group.
(§5) b represents a mean value of released amount in the treated group.
(§6) c represents a mean value of spontaneously released amount.

Test [3] relates to release of histamine induced by passive peritoneal anaphylaxis (PPA) reaction. Nature of the test: Passive Peritoneal Anaphylaxis (PPA) test: inhibition of histamine release. Particulars: ip, 5 min; rat PPA; 1 mg/kg intraperitoneally 30 seconds before egg albumin. It is filed as in vivo, Sprague-Dawley male rats. The method, then: as §1, §2
The quantitative determination of histamine was carried out according to the method of Shore et al [Shore, P. A., Bunkhalter, A. H., Cohn, V. H., J. Pharmacol. Exp. Ther., 127, pp182-186 (1959)], and the total released amount of histamine per rat (μg/rat) was calculated.
as §3, §4, §5, §6

Regarding `O=c1c2[nH]nnc2nc2sc(-c3cccs3)cn12` [Example 75], in test [1], the inhibition in vivo at 20 mg/kg was 32%.

Take `CC(C)(C)c1ccc(-c2nn3c(=O)c4[nH]nnc4nc3s2)s1` [Example 28]: in test [1], 20 mg/kg produced 34% inhibition in vivo. For `O=c1c2[nH]nnc2nc2sc(-c3cc4c(s3)CCCC4)nn12` [Example 35], the inhibition in vivo at 1 mg/kg in test [2] is 45%; in test [3] it was 88%. Further, the inhibition in vivo at 20 mg/kg in test [1] turned out to be 45%. With `O=c1c2[nH]nnc2nc2sc(CC(c3ccccc3)c3ccccc3)nn12` [Example 57], the inhibition in vivo at 1 mg/kg came out at 61% in test [2] and 86% in test [3].

On to `O=c1c2[nH]nnc2nc2sc(Cc3ccc(F)cc3)nn12` [Example 45], for which 20 mg/kg produced 57% inhibition in vivo in test [1]. Turning to `COc1ccc(Cc2nn3c(=O)c4[nH]nnc4nc3s2)cc1` [Example 44], the inhibition in vivo at 1 mg/kg in test [2] was determined as 70%; in test [3], 81%. `O=c1c2[nH]nnc2nc2sc(-c3ccc4c(c3)CCCC4)nn12` [Example 83]: in test [1], the inhibition in vivo at 20 mg/kg amounted to 44%.

As to `O=c1c2[nH]nnc2nc2sc(COc3ccc(F)cc3)nn12` [Example 66], the inhibition in vivo at 1 mg/kg was determined as 47% in test [2] and 89% in test [3]. `O=c1c2[nH]nnc2nc2sc(-c3cccc(F)c3)nn12` [Example 13]: the inhibition in vivo at 20 mg/kg in test [1] is 34%.

Regarding `CC(C)c1ccc(-c2nn3c(=O)c4[nH]nnc4nc3s2)cc1` [Example 2], the inhibition in vivo at 1 mg/kg in test [2] came to 52%; in test [3] it was 85%. As to `O=c1c2[nH]nnc2nc2sc(COc3ccccc3)nn12` [Example 64], the inhibition in vivo at 20 mg/kg in test [1] came out at 33%.

`CC(C)(C)c1ccc(-c2cn3c(=O)c4[nH]nnc4nc3s2)cc1` [Example 6] displayed an inhibition in vivo at 20 mg/kg in test [1] of 36%.

Consider `O=c1c2[nH]nnc2nc2sc(-c3ccccc3)cn12` [Example 8], for which the inhibition in vivo at 1 mg/kg in test [2] worked out at 37%; in test [3], 83%.

In test [1], `CC(C)(C)c1ccc(OCCc2nn3c(=O)c4[nH]nnc4nc3s2)cc1` [Example 69] showed an inhibition in vivo at 20 mg/kg of 34%. Regarding `O=c1c2[nH]nnc2nc2sc(C3COc4ccccc4O3)nn12` (stereo not drawn) [Example 41], the results for the inhibition in vivo at 1 mg/kg in test [2] and in test [3] were 62% and 91%, respectively. The corresponding values for `COc1ccc(-c2nn3c(=O)c4[nH]nnc4nc3s2)cc1` [Example 3] are 42% and 93%. In the case of `CC(C)(C)c1cc(-c2nn3c(=O)c4[nH]nnc4nc3s2)cs1` [Example 29], testing at 20 mg/kg in test [1] gave an inhibition in vivo of 39%. On to `CCc1ccc(-c2nn3c(=O)c4[nH]nnc4nc3s2)s1` [Example 27], for which the inhibition in vivo at 1 mg/kg in test [2] came to 63%; in test [3] it was 81%.

`O=c1c2[nH]nnc2nc2sc(C=Cc3ccccc3)nn12` [Example 62]: the inhibition in vivo at 1 mg/kg in test [2] came to 55%; in test [3], 94%. In turn, `CCc1sc(-c2nn3c(=O)c4[nH]nnc4nc3s2)cc1C` [Example 31] showed an inhibition in vivo at 20 mg/kg in test [1] of 32%. For the compound `CC(C)(C)c1ccc(Cc2nn3c(=O)c4[nH]nnc4nc3s2)cc1` [Example 43], the inhibition in vivo at 1 mg/kg is 59% in test [2] and 75% in test [3]. With `O=c1c2[nH]nnc2nc2sc(-c3ccsc3)nn12` [Example 24], the inhibition in vivo at 20 mg/kg in test [1] turned out to be 45%. Take `O=c1c2[nH]nnc2nc2sc(-c3ccc(C4CCCCC4)cc3)cn12` [Example 7]: the inhibition in vivo at 20 mg/kg in test [1] stood at 40%. Consider `CC(C)(C)c1cccc(-c2nn3c(=O)c4[nH]nnc4nc3s2)c1` [Example 82], for which the inhibition in vivo at 1 mg/kg in test [2] came out at 52%; in test [3] it was 82%. In test [1], `O=c1c2[nH]nnc2nc2sc(C3COc4ccccc4C3)nn12` (stereo not drawn) [Example 39] returned an inhibition in vivo at 20 mg/kg of 38%.

As for `COc1ccc(-c2cn3c(=O)c4[nH]nnc4nc3s2)cc1Cl` [Example 73], the inhibition in vivo at 20 mg/kg in test [1] was 48%.
